We go through 21 compounds from publication PMC7822123, “A Chemosensory Protein Detects Antifeedant in Locust (Locusta migratoria)” (Insects, 2020).

Entries after “also recorded” stand apart in the source; their conditions may differ. Where two headings read alike, the source gives them in different places.

In data set [1] the target is T1, recombinant LmigCSPIII (Locusta migratoria, UniProt Q3LB86). The experiment in a line: Fluorescent competitive binding assay with 1-NPN as reporter. The conditions noted are these: for binding affinity to LmigCSPIII (in words): among 78 tested compounds. The method, then:
Compounds (Table 2) used in the binding assay were purchased from Sigma (St. Louis, MO, USA) and were of reagent grade. Ligand binding specificity was measured with a fluorescent assay on an FS-55 emission fluorescence spectrometer (Perkin-Elmer, Waltham, MA, USA), as previously described. […] The recombinant protein was dissolved in 50 mM Tris-Buffer (pH 7.4) and titrated with aliquots of 1 mM methanol solutions of the ligands to final concentrations of […]. The florescent probe 1-NPN was excited at 337 nm and emission spectra were recorded between 380 nm and 440 nm. We used Graphpad Prism 5 software (Graphpad Software, San Diego, CA, USA) to calculate dissociation constants and draw the binding curves.

Data set [2] concerns the target T1, recombinant LmigCSPIII. Described as above. The conditions noted are these: at a concentration of 10 µM.
Data set [3] relates to Locusta migratoria nymphs. To be noted: third instar, 100 μg/cm^2, after 3 or 4 days, vs control, p < 0.001.
The test system of data set [4] is Locusta migratoria fourth instar nymphs. Kind of data set: Dual-choice feeding assay with LmigCSPIII knockdown (dsRNA) and H2O-injected locusts. The data set is classed as in vivo. The method, then: (§1) For the dual-choice experiment, the feeding deterrence index (FDI) was calculated using the formula: FDI = (C − T)/(C + T), where C and T indicated control and treated leaf consumption weights, respectively. For non-choice experiment, the FDI was calculated using the formula: FDI = (C − T)/C. A regression curve line against feeding deterrence index was created by Graphpad Prism 9 software (Graphpad Software, San Diego, CA, USA). The DC50 was defined as the concentration of AMCAL that halved the value of the feeding deterrence index.
Double-stranded RNA was synthesized using the T7 RiboMAX™Express RNAi System (Promega, Madison, WI, USA), according to the manufacturer’s protocol. Briefly, we designed degenerate primers with a T7 promoter (Table 1) at the 5′ end based on an alignment of multiple LmigCSPIII sequences. The PCR-amplified fragment was purified and used as a template in the transcription reactions. After removing the DNA template and single-stranded RNA using a nuclease, we quantified the newly synthesized dsRNA and adjusted its concentration to 2.5 µg/µL. Locusts were anaesthetized on ice for easier handling during the injection process. dsRNA (2 µL) or DEPC (Diethy Pyrocarbonate) treated water (2 µL, Sangon Biotech) was injected into the dorsal intrasegmental membrane between the third and fourth abdominal segments of newly-molted third or fourth instar locusts using a microsyringe (Narishige, Tokyo, Japan), similarly to previous experiments.
The treatments and calculation methods for detecting the effects of suppression of LmigCSPIII on locusts are similar to in the dual-choice experiment.
To determine the effects of RNAi of LmigCSPIII on its role in detecting AMCAL, we created mutants by injecting with dsRNA of LmigCSPIII into fourth instar nymphs within 2 days after molting. These locusts were then provided with the corn leaves treated with AMCAL or solvent 72 h after injection. The duration of the experiment was 2 h.

For data set [5] the test system is unchanged. Kind of data set: Dual-choice feeding assay, feeding response with intact or excised antennae. In kind it is in vivo. The method, then: For the role of antenna or mouthparts in the detection of AMCAL, a dual-choice experiment was performed. Newly molted fourth instar locusts of similar weights were anesthetized on ice for several minutes. Antennae were carefully removed with fine scissors, and then the locusts were fed with fresh corn leaves for 24 h. The locusts were then placed in feeding boxes, each of which contained two pieces of corn leaves of the same size of 4 × 3 cm, one treated with AMCAL in solvent, and the other one treated with solvent alone. The two pieces of corn leaves were placed about 12 cm apart. Feeding response (FR) was defined as follows: a leaf that was ingested, regardless of amount, was scored as 1, whereas no consumption was scored as 0. The experimental duration was about 1 h. When approximately 50% of the control foliage had been consumed, the experiment was terminated, and the feeding amount was determined as described above.

Data set [6] has the same test system. The experiment in a line: Feeding bioassay: amount consumed and feeding deterrence index. The data set is classed as in vivo. The method, then:
New emerged fourth instar locust nymphs were starved 2 h before being introduced into a transparent plastic box (14 cm diameter, 8 cm high). For the non-choice experiment, the locusts were then supplied with two pieces of corn leaf (3 × 5 cm) of the same weight. One piece of the leaf was treated with an acetone solution of α-amylcinnamaldehyde (AMCAL) after the acetone evaporated completely, and the control leaf was just treated with same amount of actone. The natural concentrations of AMCAL found in non-host plants is usually less than 0.1% in weight. According to this, acetone solutions of AMCAL at concentrations of […] were used to treat corn leaves with a final concentration of 100 μg/cm^2, 50 μg/cm^2, 10 μg/cm^2, or 1 μg/cm^2, respectively.
Food consumption (S) was determined by the fresh/dry weight method as follows: a fresh corn leaf was cut in half from the main vein and weighted separately; one half was dried at 100 °C for 2 h to calculate fresh/dry weight ratio, calculated as R [34]; the other half, whose fresh weight was S1, was reserved for the feeding experiment. After feeding duration, the residual consumed leaf was dried and weighed as above, and the dry weight was labelled as S2. Food consumption was calculated as: S = S1/R − S2.
as §1

Another data set deals with desert locust. Details: method as in PMID 12770479. The conditions noted are these: 7 µg/g body weight; cited from earlier work.
[7] abbreviates: criterion for being regarded as able to bind, Figure 4, read-out: IC50 (concentration of ligand that halved the initial fluorescence of 1-NPN).

T1 sequence (Q3LB86 entry or part of it): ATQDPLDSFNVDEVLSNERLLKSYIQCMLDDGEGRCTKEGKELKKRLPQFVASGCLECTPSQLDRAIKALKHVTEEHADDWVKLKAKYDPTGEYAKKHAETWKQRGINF

Take `CC(O)c1ccccc1` (racemic) [DL-sec-phenethyl alcohol]: the IC50 on recombinant LmigCSPIII [1] (setting [7]) is below 20 µM. By Kd is commonly meant the constant that tells how readily two partners part at equilibrium. `c1ccc(Nc2cccc3ccccc23)cc1` [1-NPN, N-phenyl-1-naphthylamine, reference compound]: the Kd at recombinant LmigCSPIII [1] stood at 3.3 µM.

Take `Nc1cccc2cc3ccccc3cc12` [1-aminoanthracene]: the “binding affinity to LmigCSPIII (in words)” value (“binding affinity” below) at recombinant LmigCSPIII [1] is reported as “strongest affinity”. In the case of `Cc1cnc(C)cn1` [2,5-Dimetylpyrazine], the IC50 on recombinant LmigCSPIII [1] (setting [7]) was below 20 µM. On to `CCCCCC(C)=O` [2-heptanone], for which the “displacement of 1-NPN from LmigCSPIII” value on recombinant LmigCSPIII [2] is on record as “able to displace 1-NPN”. Further, the IC50 on recombinant LmigCSPIII [1] (setting [7]) was below 20 µM.

In the case of `CC(C)CCO` [3-Methyl-1-butanol], the dissociation constant (Kd) at recombinant LmigCSPIII [1] (calculated from IC50 of 1-NPN displacement, read-out: dissociation constant (KD) of competitor) was 6.02 ± 0.17 µM. Further, the IC50 on recombinant LmigCSPIII [1] (setting [7]) is below 20 µM. As for `CCCCC/C(C=O)=C/c1ccccc1` [AMCAL, α-amylcinnamaldehyde], the “weight increase of nymphs” value in data set [3] is recorded as “significantly less than that of the control group”. Further, the “feeding deterrence index (FDI)” value in data set [4] (1 μg/cm^2, RNAi group) is given as −2%; in data set [4] (10 μg/cm^2, control group (H2O-injected locusts)), 50%; in data set [4] (10 μg/cm^2, locusts injected with dsRNA of LmigCSPIII) it was 22%; in data set [4] (50 μg/cm^2, RNAi group), 69%. Further, the “Feeding response (FR) to treated leaves” value in data set [5] (50 μg/cm^2, antennae excised) was 45%; in data set [5] (50 μg/cm^2, antennae intact), 47%. The “binding affinity” value on recombinant LmigCSPIII [1] is “strongest affinity; also recorded: highest affinity”. On recombinant LmigCSPIII [1] (setting [7]), the IC50 was below 20 µM. Also, the “mean consumption of food containing the chemical” value in data set [6] (1 μg/cm^2, p > 0.05, Dunnett test) was “slight and insignificant decrease”; in data set [6] (10 μg/cm^2, p < 0.01, Dunnett test), “Significant feeding inhibition”. Moreover, in data set [6] (from regression curve of feeding deterrence index, Figure 5D), the “DC50 (concentration that halved the feeding deterrence index)” value is 12 μg/cm^2. In the case of `O=Cc1ccccc1` [Benzaldehyde], the IC50 at recombinant LmigCSPIII [1] was below 20 µM. The same measure, in the same setting: under `N#CCc1ccccc1` [Benzeneacetonitrile] stands below 20 µM; under `OC1CCCCC1` [Cyclohexanol], below 20 µM.

With `CCCCOC(=O)c1ccccc1C(=O)OCCCC` [Dibutyl phthalate], the IC50 at recombinant LmigCSPIII [1] is below 20 µM.

Take `CCOC(=O)c1ccccc1C(=O)OCC` [Diethyl phthalate]: at recombinant LmigCSPIII [1], the IC50 was below 20 µM.

`C=C(C)C(=O)OCCCCCCCCCCCC` [Dodecyl 2-methylacrylate]: the IC50 at recombinant LmigCSPIII [1] (setting [7]) is below 20 µM. Same read-out and setting: under `COc1ccccc1O` [Guaicacol] stands below 20 µM; under `CCCCCCCCCCCCCCCCCO` [Heptadecanol], below 20 µM. Same read-out and setting: under `CCCCCCCCCCCCCCCCO` [Hexadecanol] stands below 20 µM; under `CCCCCCCCCCCCCCCO` [Pentadecanol], below 20 µM. Regarding `Oc1ccccc1` [Phenol], at recombinant LmigCSPIII [1], the IC50 was below 20 µM.

Regarding `C/C=C(\C)C(=O)O[C@H]1C[C@@H](OC(C)=O)[C@@]2(C(=O)OC)CO[C@H]3[C@@H](O)[C@@](C)([C@]45O[C@@]4(C)[C@H]4C[C@@H]5O[C@@H]5OC=C[C@@]54O)[C@H]4[C@]1(CO[C@]4(O)C(=O)OC)[C@@H]32` [azadirachtin], the “physiological effects in the desert locust” value in the data set on desert locust was “reduces fitness and fertility, and interferes with molting”. For the compound `CCCCCCCC/C=C\CCCCCCCC(N)=O` [oleamide, Oleamide], on recombinant LmigCSPIII [1], the IC50 is below 20 µM and the “binding affinity” value was “quite high binding affinity”. For `CCC/C=C/C=O` [trans-2-hexenal, trans-2-Hexenal], the “displacement of 1-NPN from LmigCSPIII” value at recombinant LmigCSPIII [2] is “able to displace 1-NPN”. Also, the IC50 on recombinant LmigCSPIII [1] is below 20 µM.
